Data as given in ChEMBL document CHEMBL3785027 (Eur J Med Chem, 2016).

Key:
Type in all cases: functional, cell-based
[1] = system: KB; assay: Cytotoxicity against human KB cells after 72 hrs by sulforhodamine B colorimetric assay
[2] = system: A549; assay: Cytotoxicity against human A549 cells after 72 hrs by sulforhodamine B colorimetric assay; conditions: A549, 72 h
[3] = Cytotoxicity against human KBVIN cells after 72 hrs by sulforhodamine B colorimetric assay

CC[C@@]1(OC(=O)CN/C(Cc2ccc(OC)cc2)=N/S(=O)(=O)CC)C(=O)OCc2c1cc1n(c2=O)Cc2cc3ccccc3nc2-1
IC50 [1]: 64.2 nM
IC50 [2]: 48.1 nM
IC50 [3]: 78.6 nM

CC[C@@]1(OC(=O)CN/C(Cc2ccc(OC)cc2)=N/S(=O)(=O)c2ccc(C)cc2)C(=O)OCc2c1cc1n(c2=O)Cc2cc3cc(O)ccc3nc2-1
IC50 [1]: 63.1 nM
IC50 [2]: 64 nM
IC50 [3]: 101 nM

CC[C@@]1(OC(=O)CN/C(C[Si](C)(C)C)=N/S(=O)(=O)c2ccc(C)cc2)C(=O)OCc2c1cc1n(c2=O)Cc2cc3ccccc3nc2-1
IC50 [1]: 57.8 nM
IC50 [2]: 30.2 nM
IC50 [3]: 39.9 nM

CC[C@@]1(OC(=O)CN/C(Cc2ccc(OC)cc2)=N/S(=O)(=O)c2ccc3ccccc3c2)C(=O)OCc2c1cc1n(c2=O)Cc2cc3ccccc3nc2-1
IC50 [1]: 68.7 nM
IC50 [2]: 16.2 nM
IC50 [3]: 25.6 nM

CCCCS(=O)(=O)/N=C(\Cc1ccc(OC)cc1)NCC(=O)O[C@]1(CC)C(=O)OCc2c1cc1n(c2=O)Cc2cc3ccccc3nc2-1
IC50 [1]: 54.2 nM
IC50 [2]: 34.9 nM
IC50 [3]: 43.5 nM

CC[C@@]1(OC(=O)CN/C(Cc2ccccc2)=N/S(=O)(=O)c2ccc(C)cc2)C(=O)OCc2c1cc1n(c2=O)Cc2cc3c([N+](=O)[O-])cccc3nc2-1
IC50 [1]: 9050 nM
IC50 [2]: 8270 nM
IC50 [3]: 9130 nM

CC[C@@]1(OC(=O)CN/C(Cc2ccc(OC)cc2)=N/S(=O)(=O)c2ccc([N+](=O)[O-])cc2)C(=O)OCc2c1cc1n(c2=O)Cc2cc3ccccc3nc2-1
IC50 [1]: 14.9 nM
IC50 [2]: 14.9 nM
IC50 [3]: 14.9 nM

CC[C@@]1(OC(=O)CN/C(Cc2ccc(OC)cc2)=N/S(=O)(=O)c2ccc(C)cc2)C(=O)OCc2c1cc1n(c2=S)Cc2cc3ccccc3nc2-1
IC50 [1]: 233 nM
IC50 [2]: 140 nM
IC50 [3]: 159 nM

CC[C@@]1(OC(=O)CN/C(Cc2ccc(OC)cc2)=N/S(=O)(=O)c2cccnc2)C(=O)OCc2c1cc1n(c2=O)Cc2cc3ccccc3nc2-1
IC50 [1]: 93.8 nM
IC50 [2]: 76.5 nM
IC50 [3]: 123 nM

CC[C@@]1(OC(=O)CN/C(Cc2ccc(OC)cc2)=N/S(=O)(=O)c2ccc(C)cc2)C(=O)OCc2c1cc1n(c2=O)C(OC)c2cc3ccccc3nc2-1 (stereo partly specified)
IC50 [1]: 7560 nM
IC50 [2]: 7310 nM
IC50 [3]: 6880 nM

CC[C@@]1(OC(=O)CN/C(Cc2ccc(OC)cc2)=N/S(=O)(=O)c2ccc(C)cc2)C(=O)OCc2c1cc1n(c2=O)Cc2cc3c([N+](=O)[O-])cccc3nc2-1
IC50 [1]: 7040 nM
IC50 [2]: 6270 nM
IC50 [3]: 4580 nM

CCc1c(OP(=O)(O)OC)ccc2nc3c(cc12)Cn1c-3cc2c(c1=O)COC(=O)[C@@]2(CC)OC(=O)CN/C(Cc1ccc(OC)cc1)=N/S(=O)(=O)c1ccc(C)cc1
IC50 [1]: 141 nM
IC50 [2]: 344 nM
IC50 [3]: 305 nM

CC[C@@]1(OC(=O)CN/C(Cc2ccc(OC)cc2)=N/S(=O)(=O)c2ccc(C)cc2)C(=O)OCc2c1cc1n(c2=O)Cc2cc3ccccc3nc2-1
IC50 [3]: 26.3 nM

CC[C@@](O)(C(=O)NCCN/C(Cc1ccc(OC)cc1)=N/S(=O)(=O)c1ccc(C)cc1)c1cc2n(c(=O)c1COC(C)=O)Cc1cc3ccccc3nc1-2
IC50 [1]: 937 nM
IC50 [2]: 688 nM
IC50 [3]: 947 nM

CC[C@@]1(OC(=O)CCCN/C(Cc2ccc(OC)cc2)=N\S(=O)(=O)c2ccc(C)cc2)C(=O)OCc2c1cc1n(c2=O)Cc2cc3ccccc3nc2-1
IC50 [1]: 830 nM
IC50 [2]: 448 nM
IC50 [3]: 955 nM

CCc1c2c(nc3ccccc13)-c1cc3c(c(=O)n1C2)COC(=O)[C@@]3(CC)OC(=O)C(C)N/C(Cc1ccc(OC)cc1)=N/S(C)(=O)=O (stereo partly specified)
IC50 [1]: 95.2 nM
IC50 [2]: 61 nM
IC50 [3]: 98.2 nM

CCc1c2c(nc3ccccc13)-c1cc3c(c(=O)n1C2)COC(=O)[C@@]3(CC)OC(=O)C(C)N/C(Cc1ccc(Cl)cc1)=N/S(=O)(=O)c1ccc(C)cc1 (stereo partly specified)
IC50 [1]: 13.3 nM
IC50 [2]: 12.9 nM
IC50 [3]: 16 nM

CC[C@@]1(OC(=O)CN/C(Cc2ccc(OC)cc2)=N/S(=O)(=O)c2ccc(OC)cc2)C(=O)OCc2c1cc1n(c2=O)Cc2cc3ccccc3nc2-1
IC50 [1]: 51.6 nM
IC50 [2]: 31.9 nM
IC50 [3]: 22.2 nM

CCc1c2c(nc3ccccc13)-c1cc3c(c(=O)n1C2)COC(=O)[C@@]3(CC)OC(=O)CN/C(Cc1ccccc1)=N/S(=O)(=O)c1ccc(C)cc1
IC50 [1]: 89.5 nM
IC50 [2]: 7.2 nM
IC50 [3]: 18.5 nM

CC[C@@]1(OC(=O)C(C)N/C(Cc2ccc(OC)cc2)=N/S(=O)(=O)c2ccc(C)cc2)C(=O)OCc2c1cc1n(c2=S)Cc2cc3ccccc3nc2-1 (stereo partly specified)
IC50 [1]: 109 nM
IC50 [2]: 86.9 nM
IC50 [3]: 151 nM

CC[C@@]1(OC(=O)CCN/C(Cc2ccc(OC)cc2)=N\S(=O)(=O)c2ccc(C)cc2)C(=O)OCc2c1cc1n(c2=O)Cc2cc3ccccc3nc2-1
IC50 [1]: 622 nM
IC50 [2]: 88.9 nM
IC50 [3]: 527 nM

CC[C@@]1(OC(=O)CN/C(Cc2ccc(OC)cc2)=N/S(=O)(=O)c2cccs2)C(=O)OCc2c1cc1n(c2=O)Cc2cc3ccccc3nc2-1
IC50 [1]: 55 nM
IC50 [2]: 37.5 nM
IC50 [3]: 32.5 nM

CC[C@@]1(OC(=O)CN/C(Cc2ccc(OC)cc2)=N/S(C)(=O)=O)C(=O)OCc2c1cc1n(c2=O)Cc2cc3ccccc3nc2-1
IC50 [1]: 105 nM
IC50 [2]: 54 nM
IC50 [3]: 63.5 nM

CC[C@@]1(OC(=O)CN/C(Cc2ccc(C)cc2)=N/S(=O)(=O)c2ccc(C)cc2)C(=O)OCc2c1cc1n(c2=O)Cc2cc3ccccc3nc2-1
IC50 [1]: 73.9 nM
IC50 [2]: 17.4 nM
IC50 [3]: 27.5 nM

CC[C@@]1(OC(=O)CN/C(Cc2ccc(Cl)cc2)=N/S(=O)(=O)c2ccc(C)cc2)C(=O)OCc2c1cc1n(c2=O)Cc2cc3ccccc3nc2-1
IC50 [1]: 100 nM
IC50 [2]: 54.9 nM
IC50 [3]: 64.8 nM

CC[C@@]1(OC(=O)CN/C(Cc2ccc(OC)cc2)=N/S(=O)(=O)c2ccc(C)cc2)C(=O)OCc2c1cc1n(c2=O)Cc2cc3cccc([N+](=O)[O-])c3nc2-1
IC50 [1]: 11300 nM
IC50 [2]: 13900 nM
IC50 [3]: 10700 nM

CC[C@@]1(OC(=O)CN/C(Cc2ccc(OC)cc2)=N/S(=O)(=O)c2ccc(Cl)cc2)C(=O)OCc2c1cc1n(c2=O)Cc2cc3ccccc3nc2-1
IC50 [1]: 73 nM
IC50 [2]: 16.5 nM
IC50 [3]: 24.8 nM

CC[C@@]1(OC(=O)CN/C(Cc2ccc(OC)cc2)=N/S(=O)(=O)c2ccc(C)cc2)CC(=O)OCc2c1cc1n(c2=O)Cc2cc3ccccc3nc2-1
IC50 [1]: 232 nM
IC50 [2]: 83.6 nM
IC50 [3]: 263 nM

CC[C@@]1(OC(=O)CN/C(Cc2ccc(OC)cc2)=N/S(=O)(=O)N(C)C)C(=O)OCc2c1cc1n(c2=O)Cc2cc3ccccc3nc2-1
IC50 [1]: 66.5 nM
IC50 [2]: 40.8 nM
IC50 [3]: 45.3 nM

CCc1c2c(nc3ccccc13)-c1cc3c(c(=O)n1C2)COC(=O)[C@@]3(CC)OC(=O)CN/C(Cc1ccc(OC)cc1)=N/S(=O)(=O)c1ccc(C)cc1
IC50 [1]: 9.4 nM
IC50 [2]: 6.8 nM
IC50 [3]: 10.1 nM

CCc1c2c(nc3ccc(OC(=O)N4CCC(N5CCCCC5)CC4)cc13)-c1cc3c(c(=O)n1C2)COC(=O)[C@]3(O)CC [IRINOTECAN]
IC50 [1]: 9830 nM
IC50 [2]: 9480 nM
IC50 [3]: > 20000 nM

CCc1c2c(nc3ccccc13)-c1cc3c(c(=O)n1C2)COC(=O)[C@@]3(CC)OC(=O)C(C)N/C(Cc1ccc(OC)cc1)=N/S(=O)(=O)c1ccc(C)cc1 (stereo partly specified)
IC50 [1]: 84.2 nM
IC50 [2]: 16 nM
IC50 [3]: 22.7 nM

CCc1c2c(nc3ccccc13)-c1cc3c(c(=O)n1C2)COC(=O)[C@@]3(CC)OC(=O)C(C)N/C(Cc1ccccc1)=N/S(=O)(=O)c1ccc(C)cc1 (stereo partly specified)
IC50 [1]: 83.6 nM
IC50 [2]: 10.2 nM
IC50 [3]: 19.5 nM

CCc1c2c(nc3ccc(O)cc13)-c1cc3c(c(=O)n1C2)COC(=O)[C@@]3(CC)OC(=O)CN/C(Cc1ccc(OC)cc1)=N/S(=O)(=O)c1ccc(C)cc1
IC50 [1]: 4.5 nM
IC50 [2]: 21.8 nM
IC50 [3]: 28.2 nM

CC[C@@]1(OC(=O)CN/C(Cc2ccc(OC)cc2)=N/S(=O)(=O)c2ccc(F)cc2)C(=O)OCc2c1cc1n(c2=O)Cc2cc3ccccc3nc2-1
IC50 [1]: 16.9 nM
IC50 [2]: 14.1 nM
IC50 [3]: 22.5 nM

CCc1c2c(nc3ccccc13)-c1cc3c(c(=O)n1C2)COC(=O)[C@@]3(CC)OC(=O)CN/C(Cc1ccc(OC)cc1)=N/S(C)(=O)=O
IC50 [1]: 16.7 nM
IC50 [2]: 19.8 nM
IC50 [3]: 25.8 nM
